Laboratory results: patent US20220143041A1, “COMBINED THERAPY FOR NMDAR ANTAGONIST-RESPONSIVE NEUROPSYCHIATRIC DISORDERS” (Glytech LLC, priority 2017, published 2022)
“Also recorded” adds a separate entry of the source.

Assays:
[1] = system: Male BalbC/J mice; experiment: Forced swim test (FST), immobility time; format: in vivo; settings: for FST additional beneficial effects in combination with DCS / FST effect of combined antidepressant and DCS vs either agent alone / DCS alone: agent (dose) + DCS 300 mg/kg IP, FIG. 2; for Immobility time in the rodent forced swim test, Mean: 6-min test, IP 30 min prior, DCS 300 mg/kg, mirtazapine or isomer 5 mg/kg, alone or combined; for Effect on immobility in the forced swim test vs control: DCS alone
[2] = Pharmacokinetics of D-cycloserine in rodents (plasma level, UPLC/MS/MS); format: in vivo; settings: mice
Protocol: For this study, male C57BL/6J mice (8 weeks old) from Jackson Laboratories (Bar Harbor, Me.) were used.
For each treatment group a total of 12 mice were dosed: 4 mice were collected at 30, 60 and 120 min. Mean plasma level was computed over the 30-60 min time period.

[3] = system: mice; experiment: Marble burying test; format: in vivo; settings: for Marble burying effect relative to racemic mirtazapine: 1-10 mg/kg IP
Excerpt: Distance traveled during the test was captured by cameras and quantified using Video Tracker Software (ViewPoint Life Sciences Software, France). At the end of the test mice were removed from the cages and the number of unburied marbles was counted. A marble was considered buried if it was covered at least two thirds with bedding. An effect was considered significant if p<0.05.
from the cages and the number of unburied marbles was counted. A marble was considered buried if it was covered at least two thirds with bedding.
The following compounds were used. […] This compound was dissolved in 20% cyclodextrin and administered IP 30 min prior to test at a dose volume of 10 ml/kg. • Combination DSC (300 mg/kg)+Mirtazapine ([…]) was administered IP as a cocktail in a single injection 30 minutes prior to test at a dose volume of 10 ml/kg.
Mirtazapine is a racemic mix of separate R(−) and S(+) isomers. A follow-up study evaluated the relative effects of the two isomers independently. Methods are the same as for Example 3.

[4] = cited from earlier work
[5] = system: mice; settings: mice (Carlsson et al.); cited from earlier work
[6] = target: T1, NMDAR (Homo sapiens, UniProt Q05586); settings: in vivo; cited from earlier work
T1 construct: from tissue; host or cells: endogenous receptors of the treated subject (brain), in vivo

[7] = system: symptoms of major depression; settings: 250 mg/day; cited from earlier work
[8] = system: Male C57BL/6J mice; experiment: Open field test, locomotor activity; settings: vs vehicle
[9] = Pharmacokinetics of D-cycloserine in humans (literature)
[10] = system: rodent; settings: Freynhagen et al.; cited from earlier work
[11] = FIG. 3, IP 30 min prior, paroxetine 5, mirtazapine 5.5, D-cycloserine 30 and 300 mg/kg, combination 300 + 5.5 mg/kg
[12] = humans, 250 mg PO every 12 hrs (Park et al.)
[13] = humans, 500 mg, fasting (Zhu et al.)
[14] = patients, mean dose 8.8 mg/kg, mostly 500 mg/day (Hung et al.)
[15] = 500 mg, corresponding to AUC over 24 hr (Zhu et al.)
[16] = FIG. 4, IP, paroxetine 5, mirtazapine and S-mirtazapine 1, 2.5, 5, 10, R-mirtazapine 10 mg/kg

CN[C@H]1CC[C@@H](c2ccc(Cl)c(Cl)c2)c2ccccc21 [sertraline]
FST additional beneficial effects in combination with DCS [1]: addition beneficial effects | FST effect of combined antidepressant and DCS vs either agent alone / DCS alone [1]: significantly larger than with either agent alone; also recorded: effects greater than DCS alone

CC(NC(C)(C)C)C(=O)c1cccc(Cl)c1 (centres unmarked) [bupropion]
FST additional beneficial effects in combination with DCS [1]: addition beneficial effects | FST effect of combined antidepressant and DCS vs either agent alone / DCS alone [1]: significantly larger than with either agent alone; also recorded: effects greater than DCS alone

Cc1ccc(Sc2ccccc2N2CCNCC2)c(C)c1 [vortioxetine]
FST additional beneficial effects in combination with DCS [1]: addition beneficial effects

COc1ccc(C(CN(C)C)C2(O)CCCCC2)cc1 (centres unmarked) [venlafaxine]
FST additional beneficial effects in combination with DCS [1]: addition beneficial effects

N[C@@H]1CON=C1O [DCS, 3-Isoxazolidinone, 4-amino-, (4R)-(9CI)]
Immobility time in the rodent forced swim test, Mean [1]: 42.08 s | Effect on immobility in the forced swim test vs control ([1]; 30 mg/kg (FIG. 1, PO)): no significant effect | Effect on immobility in the forced swim test vs control ([1]; doses of 100 mg/kg or above (FIG. 1, PO)): statistically significant (p<0.001) reduction | Mean plasma levels over 30-60 min ([2]; D-cycloserine 30 mg/kg IP): below 25 microgram/mL | Mean plasma levels over 30-60 min ([2]; D-cycloserine 30 mg/kg IP, listed as D-cycloserine): 24.89 microgram/mL | Mean plasma levels over 30-60 min ([2]; D-cycloserine 100 mg/kg IP): 74.92 microgram/mL | Mean plasma levels over 30-60 min ([2]; D-cycloserine 500 mg/kg IP): 375.44 microgram/mL | Mean plasma levels over 30-60 min ([2]; D-cycloserine 1000 mg/kg IP): 510.73 microgram/mL | MTD ([2]; male, C57BL/6J, mouse, in vivo, IP, read-out: Maximum tolerated dose): 500 to 1000 mg/kg | Maximum tolerated blood level ([2]; suggested from maximum tolerated dose): approximately 500 ug/mL | Number of marbles buried compared to vehicle [3, 11]: did not affect | Mean AUC over 12 hrs [4, 12]: 242.3 µg·h/mL | Mean Cmax [4, 12]: 24.9 microgram/mL | AUC over 24 hr, range [4, 13]: 163-352 microgram-hr/mL | Cmax, range [4, 13]: 12.1-30.6 microgram/mL | Median AUC over 24 hr [4, 13]: 214 microgram-hr/mL | Median Cmax [4, 13]: 14.8 microgram/mL | Sustained plasma level following 500 mg administration ([4]; humans, summary of PK studies): below 25 microgram/mL | DCS concentration at 2 hr after dosing [4, 14]: 19.7 microgram/mL | DCS concentration at 6 hr after dosing [4, 14]: 18.1 microgram/mL | Effect on locomotor stimulation by a low dose of MK-801 [5]: potentiated | Plasma concentrations associated with antagonist effects [6]: > 25 µg/mL | Plasma concentrations associated with primarily agonist effects [6]: < 10 µg/mL | Plasma levels with increased liability for toxicity [6]: > 35000 ng/mL | Effect on symptoms of major depression [7]: without significant effect | Mean distance travelled over 30 min (locomotor activity) ([8]; DCS 30 mg/kg IP): 4432.1 | Mean distance travelled over 30 min (locomotor activity) ([8]; DCS 30 mg/kg IP, listed as D-cycloserine): not significantly affected | Mean distance travelled over 30 min (locomotor activity) ([8]; DCS 300 mg/kg IP): 7588.5 | Mean distance travelled over 30 min (locomotor activity) ([8]; DCS 300 mg/kg IP, listed as D-cycloserine): significantly increased | Mean distance travelled over 30 min (locomotor activity) ([8]; DCS 1000 mg/kg IP): 9049.8 | Mean distance travelled over 30 min (locomotor activity) ([8]; DCS 1000 mg/kg IP, listed as D-cycloserine): significantly increased | Mean plasma level ([9]; 250 mg PO every 12 hrs, corresponding to AUC over 12 hrs (Park et al.)): 20.2 microgram/mL | Median sustained plasma level [9, 15]: 8.9 microgram/mL | Sustained plasma level, range [9, 15]: 6.8-14.7 microgram/mL

CN1CCN2c3ncccc3Cc3ccccc3[C@H]2C1 [S-mirtazapine, S(+)mirtazapine]
Immobility time in the rodent forced swim test, Mean [1]: 117.60 s | Marble burying effect relative to racemic mirtazapine ([3]; FIG. 4): significantly more robust | Number of marbles buried compared to vehicle [3, 16]: significantly reduced | Number of marbles buried, combination with DSC 300 mg/kg vs agent 2.5 mg/kg alone ([3]; IP 30 min prior): floor level effects | Effect in a rodent nociception assay [10]: pro-nociceptive effects

Fc1ccc([C@@H]2CCNC[C@H]2COc2ccc3c(c2)OCO3)cc1 [Paroxetine]
Number of marbles buried compared to vehicle [3, 11]: significantly reduced | Number of marbles buried compared to vehicle [3, 16]: significantly reduced

CNCCC(Oc1ccc(C(F)(F)F)cc1)c1ccccc1 (centres unmarked) [fluoxetine]
FST additional beneficial effects in combination with DCS [1]: addition beneficial effects

CNCC[C@H](Oc1cccc2ccccc12)c1cccs1 [duloxetine]
FST additional beneficial effects in combination with DCS [1]: addition beneficial effects | FST effect of combined antidepressant and DCS vs either agent alone / DCS alone [1]: significantly larger than with either agent alone; also recorded: effects greater than DCS alone

CN1CCN2c3ncccc3Cc3ccccc3[C@@H]2C1 [R-mirtazapine, R(−)mirtazapine]
FST reduction in immobility, R- vs racemic mirtazapine ([1]; 5 mg/kg, in absence and presence of DCS, not statistically different): numerically greater | Immobility time in the rodent forced swim test, Mean [1]: 68.40 s | Marble burying effect relative to racemic mirtazapine ([3]; FIG. 4): less robust | Number of marbles buried compared to vehicle [3, 16]: significantly reduced | Number of marbles buried compared to vehicle ([3]; FIG. 4, R-mirtazapine 1, 2.5 and 5 mg/kg IP): did not affect | Relative effects of R- and S-isomers of mirtazapine on marble burying (FIG. 4 legend) ([3]; FIG. 4 legend): greater effects of R- vs S-isomer | Effect in a rodent nociception assay [10]: only anti-nociceptive effects

CN1CCN2c3ncccc3Cc3ccccc3C2C1 (racemic) [mirtazapine]
Immobility time in the rodent forced swim test, Mean [1]: 92.30 s | FST additional beneficial effects in combination with DCS [1]: addition beneficial effects | Number of marbles buried compared to vehicle [3, 11]: significantly reduced | Number of marbles buried compared to vehicle [3, 16]: significantly reduced | Effect in a rodent nociception assay [10]: biphasic effects
